# Experimental data taken from patent US5324725A, “7-fused 2-(piperazinoalkyl) indole derivatives, intermediates and compositions thereof” (Kali-Chemie Pharma GmbH, priority 1991, dated 1994).
# Where two headings read alike, the source gives them in different places.
# Molecular target: T1, histamine (H1) receptor (Cavia porcellus, UniProt P31389)
# T1 construct: isolated smooth muscle of the guinea-pig ileum; from tissue; host or cells: isolated ileum segments of Dunkin Hartley guinea-pigs
# Assay: Antihistamine (H1) effect: inhibition of histamine-induced contractions of isolated guinea-pig ileum in vitro
# Assay type: cell-based, guinea-pig (Dunkin Hartley)
# Conditions: histamine 5 × 10^-6 mol/l, test substance 10^-6 mol/l
# Experimental: 3. Investigation of the antihistamine (H1) effect based on histamine (H1) receptor antagonism in vitro.
# To investigate the histamine (H1) receptor antagonism of the substances, the inhibitory effect thereof on histamine-induced contractions of the smooth musculature of isolated organ was determined in vitro. Isolated strips of organ from the ileum were used. In an organ bath of physiological saline solution, they react to addition of histamine by contracting. Addition of the compounds of the invention decreases this histamine-induced contraction of the smooth musculature of the ileum strips. The extent of decrease of the contraction is an indication of the antihistamine (H1) activity of the compounds. The investigation is carried out analogously to the method originally described by Magnus (Pflugers Arch. 102, 123 (1904)).
# Experimental description of the determination of the inhibitory effect on the contraction induced by a 5×10^-6 molar histamine concentration on isolated smooth muscle of the guinea-pig ileum.
# For the test, 1.5 cm long segments of the ileum from Dunkin Hartley guinea-pigs having a body weight of 300-500 g were employed. Each strip was placed in an organ bath of 10 ml of Krebs-Henseleit physiological saline solution and attached to a customary apparatus for isotonically measuring changes in length of the ileum strip (automated Celaster measuring apparatus) so that the tissue is under a tension of 1 g. The bath was kept at a pH of 7.4 and aerated with a mixture of 5% CO2 and 95% O2. After an equilibration phase, an isotonic contraction of the tissue was produced by adding histamine in a final concentration of 5×10^-6 mol/l and was washed out again after a contact time of 30 seconds. Only those tissues in which three reproducible contractions were obtained at 10 minute intervals were used in the subsequent test. The test substances were then added in a final concentration of 10^-6 mol/l, and after a contact time of 30 seconds histamine was again added up to a concentration of 5×10^-6 mol/l. The contractions which occurred were measured over the course of 30 seconds. The tissue was then washed several times over a period of 10 minutes. A contraction challenge was then induced again by addition of histamine. The contractions which occurred were again measured over 30 seconds. The difference between the amplitude of the contraction obtained by histamine addition alone and the amplitude of the contraction obtained in the presence of the test substance was determined and calculated as % inhibition.
# The inhibitory effects on the contractions induced by histamine 30 seconds after administration of the test substance and on the contractions induced by addition of histamine 10 minutes afterward are given in the table.
# [1] = after 30 sec., read-out: in vitro (H1) receptor antagonism % inhibitory effect on histamine-induced contractions of the Ileum, after 30 sec.
# [2] = after 10 min. (after washing), read-out: in vitro (H1) receptor antagonism % inhibitory effect on histamine-induced contractions of the Ileum, after 10 min.
# T1 sequence (P31389 whole entry): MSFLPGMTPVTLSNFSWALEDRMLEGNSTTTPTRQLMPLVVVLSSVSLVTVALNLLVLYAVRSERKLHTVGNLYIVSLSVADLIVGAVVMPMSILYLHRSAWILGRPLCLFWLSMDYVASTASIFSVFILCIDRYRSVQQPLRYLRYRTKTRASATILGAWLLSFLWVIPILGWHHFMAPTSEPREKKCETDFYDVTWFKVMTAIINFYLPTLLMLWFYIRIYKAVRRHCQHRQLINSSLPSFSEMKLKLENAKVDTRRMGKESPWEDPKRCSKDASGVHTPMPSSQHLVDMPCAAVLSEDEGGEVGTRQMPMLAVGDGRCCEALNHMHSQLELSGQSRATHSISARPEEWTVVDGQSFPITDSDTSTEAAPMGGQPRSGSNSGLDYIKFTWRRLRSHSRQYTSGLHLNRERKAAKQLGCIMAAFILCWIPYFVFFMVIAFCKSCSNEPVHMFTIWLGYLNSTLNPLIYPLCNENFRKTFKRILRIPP
Compound,inhibition at 1 µM [1],inhibition at 1 µM [2]
Cc1ccnc(N2CCN(CCc3c(C)n4c5c(cc(NC(=O)C(C)C)cc35)CCC4)CC2)c1 [Example 60],9%,37%
"Cc1ccnc(N2CCN(CCc3c(C)n4c5c(cccc35)SCC4)CC2)c1 [Example 11, 5-Methyl-6-{2-[4-(4-methylpyridin-2-yl)piperazin-1-yl]ethyl}-2,3-dihydro-pyrrolo[1,2,3-de]-1,4-benzo-thiazine]",21%,84%
"CCc1c(CCN2CCN(c3cc(C)ccn3)CC2)c2cccc3c2n1CCC3 [Example 15, 2-Ethyl-5,6-dihydro-1-{2-[4-(4-methylpyridin-2-yl)piperazin-1-yl]ethyl}-4H-pyrrolo[3,2,1-ij]quinoline]",29%,78%
Cc1ccnc(N2CCN(CCc3c(C)n4c5c(cc(C)cc35)CCC4)CC2)c1 [Example 54],8%,94%
"Cc1ccnc(N2CCN(CCc3c(C)n4c5c(cc([N+](=O)[O-])cc35)CCC4)CC2)c1 [Example 10, 2-Methyl-8-nitro-1-{2-[4-(4-methylpyridin-2-yl)-piperazin-1-yl]ethyl}-5,6-dihydro-4H-pyrrolo[3,2,1-ij]quinoline]",47%,92%
"CC(=O)Oc1cc2c3c(c1)c(CCN1CCN(c4cc(C)ccn4)CC1)c(C)n3CCC2 [Example 24, 8-Acetoxy-5,6-dihydro-2-methyl-1-{2-[4-(4-methyl-pyridin-2-yl)piperazin-1-yl]ethyl}-4H-pyrrolo[3,2,1-ij]quinoline]",81%,94%
"Cc1ccnc(N2CCN(CCc3cn4c5c(cccc35)CCC4)CC2)c1 [Example 13, 5,6-Dihydro-1-{2-[4-(4-methylpyridin-2-yl)piperazin-1-yl]ethyl}-4H-pyrrolo[3,2,1-ij]quinoline]",33%,63%
Cc1ccnc(N2CCN(CCc3c(C)n4c5c(cccc35)C(C)CC4)CC2)c1 (stereo not shown) [Example 57],20%,80%
